Assay: Bidirectional Caco-2 permeability assay
Format: in vitro ADME
Settings: human, Caco-2
In short: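 Caco-2 monolayers (passage 39, 19-day culture, TEER >600 Ohms/cm^2) dosed A→B and B→A in duplicate, 90 min at 37 °C without shaking. Donor and receiver samples at 10 and 90 min quantified by LC/MS/MS. Papp (cm/s), efflux ratio and recovery calculated; ER >2 flags potential efflux substrate.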

Row | SMILES | Papp A→B at 90 min | Papp B→A at 90 min | efflux ratio at 90 min
1 | CCCCOC(C)(C)C(=O)Nc1ncnn2c([C@]3(C#N)O[C@H](COC(=O)CC4CCCCC4)[C@@H](OC(=O)[C@@H](N)C(C)(C)C)[C@H]3O)ccc12 [Compound 74, (2R,3S,4R,5R)-5-(4-(2-butoxy-2-methylpropanamido)pyrrolo[2,1-f][1,2,4]triazin-7-yl)-5-cyano-2-((2-cyclohexylacetoxy)methyl)-4-hydroxytetrahydrofuran-3-yl (S)-2-amino-3,3-dimethylbutanoate] | 0.41 ×10⁻⁶ cm/s | 0.41 ×10⁻⁶ cm/s | 1
2 | CCCCOC(C)(C)C(=O)Nc1ncnn2c([C@]3(C#N)O[C@H](COC(=O)CC4CCCCCC4)[C@@H](OC(=O)[C@H](N)C(C)(C)C)[C@H]3O)ccc12 [Compound 75, (2R,3S,4R,5R)-5-(4-(2-butoxy-2-methylpropanamido)pyrrolo[2,1-f][1,2,4]triazin-7-yl)-5-cyano-2-((2-cycloheptylacetoxy)methyl)-4-hydroxytetrahydrofuran-3-yl(R)-2-amino-3,3-dimethylbutanoate] | 0.22 ×10⁻⁶ cm/s | 0.12 ×10⁻⁶ cm/s | 0.52
3 | CCC(CC)C(=O)Nc1ncnn2c([C@]3(C#N)O[C@H](COC(=O)CC4CCCC4)[C@@H](OC(=O)[C@H](N)C(C)(C)C)[C@H]3O)ccc12 [Compound 76, (2R,3S,4R,5R)-5-cyano-2-((2-cyclopentylacetoxy)methyl)-5-(4-(2-ethylbutanamido)pyrrolo[2,1-f][1,2,4]triazin-7-yl)-4-hydroxytetrahydrofuran-3-yl (R)-2-amino-3,3-dimethylbutanoate] | 2.5 ×10⁻⁶ cm/s | 2.4 ×10⁻⁶ cm/s | 1
4 | CCC(CC)C(=O)Nc1ncnn2c([C@]3(C#N)O[C@H](COC(=O)CC4CCCCCC4)[C@@H](OC(=O)[C@H](N)C(C)(C)C)[C@H]3O)ccc12 [Compound 77, (2R,3S,4R,5R)-5-cyano-2-((2-cycloheptylacetoxy)methyl)-5-(4-(2-ethylbutanamido)pyrrolo[2,1-f][1,2,4]triazin-7-yl)-4-hydroxytetrahydrofuran-3-yl (R)-2-amino-3,3-dimethylbutanoate] | 1 ×10⁻⁶ cm/s | 1.6 ×10⁻⁶ cm/s | 1.7
